# pIC50: −log10 of the molar value. Activity calls are given as the source filed them. No cut-off for these calls is given here.
# What was measured:
# [1] = system: SW1990; assay: Induction of apoptosis in human SW1990 cells assessed as early apoptotic cells at 2 uM measured after 24 hrs by PI/Annexin V staining based flow cytometric analysis (reference value: 10.7%); assay type: functional
# [2] = Toxicity in BALB/c mouse allografted with mouse CT26 cells assessed as effect on heart morphology at 40 to 60 mg/kg, ip administered once a day for 10 days by H and E staining based microscopic analysis; assay type: organism-based; conditions: in vivo, 240 h, dose 40-60 mg/kg, time 10 day
# [3] = Toxicity in BALB/c mouse allografted with mouse CT26 cells assessed as MCHC level at 40 to 60 mg/kg, ip administered once a day for 10 days (reference value: 338 to 361 g/L); assay type: organism-based; conditions: in vivo, 240 h, dose 40-60 mg/kg, time 10 day
# [4] = Toxicity in BALB/c mouse allografted with mouse CT26 cells assessed as PCT level at 40 to 60 mg/kg, ip administered once a day for 10 days (reference value: 0.226 to 6.4 %); assay type: organism-based; conditions: in vivo, 240 h, dose 40-60 mg/kg, time 10 day
# [5] = Toxicity in BALB/c mouse allografted with mouse CT26 cells assessed as eosinophil level at 40 to 60 mg/kg, ip administered once a day for 10 days (reference value: 16 to 17.3 %); assay type: organism-based; conditions: in vivo, 240 h, dose 40-60 mg/kg, time 10 day
# [6] = system: GTPase KRas (Homo sapiens), P01116 [G12D]; assay: Binding affinity to human his-tagged KRAS G12D mutant assessed as change in entropy by isothermal titration calorimetry
# [7] = system: SW1990; assay: Induction of apoptosis in human SW1990 cells assessed as early apoptotic cells at 4 uM measured after 24 hrs by PI/Annexin V staining based flow cytometric analysis (reference value: 10.7%); assay type: functional
# [8] = Toxicity in BALB/c mouse allografted with mouse CT26 cells assessed as basophil level at 40 to 60 mg/kg, ip administered once a day for 10 days (reference value: 0.050 to 40.3 10^9/L); assay type: organism-based; conditions: in vivo, 240 h, dose 40-60 mg/kg, time 10 day
# [9] = Toxicity in BALB/c mouse allografted with mouse CT26 cells assessed as MCV level at 40 to 60 mg/kg, ip administered once a day for 10 days (reference value: 16 to 47 fL); assay type: organism-based; conditions: in vivo, 240 h, dose 40-60 mg/kg, time 10 day
# [10] = biological target: GTPase KRas (Homo sapiens) (UniProt P01116); assay: Inhibition of wild type KRAS (unknown origin) downstream signalling in human HCT-116 cells assessed as suppression of Raf phosphorylation incubated 24 hrs by pull down based Western blotting analysis; assay type: cell-based; conditions: dose <= 8.0 µM, DDE = dose-dependent effect
# [11] = Toxicity in BALB/c mouse allografted with mouse CT26 cells assessed as effect on kidney morphology at 40 to 60 mg/kg, ip administered once a day for 10 days by H and E staining based microscopic analysis; assay type: organism-based; conditions: in vivo, 240 h, dose 40-60 mg/kg, time 10 day
# [12] = system: CT26; assay: Antitumor activity against mouse CT26 cells allografted in BALB/c mouse assessed as inhibition of tumor growth at 40 mg/kg, ip administered once a day for 10 days; assay type: functional; conditions: CT26, 240 h, time 10 day, read-out: TGI
# [13] = system: CT26; assay: Inhibition of KRAS G12D mutant (unknown origin) downstream signalling in mouse CT26 cells assessed as suppression of ERK phosphorylation incubated for 24 hrs by pull down based Western blotting analysis; assay type: cell-based; conditions: dose <= 16.0 µM, DDE = dose-dependent effect
# [14] = system: CT26; assay: Antitumor activity against mouse CT26 cells allografted in BALB/c mouse assessed as inhibition of tumor growth at 60 mg/kg, ip administered once a day for 10 days; assay type: functional; conditions: CT26, 240 h, time 10 day, read-out: TGI
# [15] = system: CT26; assay: Induction of apoptosis in mouse CT26 cells assessed as early apoptotic cells at 4 uM measured after 24 hrs by PI/Annexin V staining based flow cytometric analysis (reference value: 11.2%); assay type: functional
# [16] = system: SW1990; assay: Induction of apoptosis in human SW1990 cells assessed as viable cells at 2 uM measured after 24 hrs by PI/Annexin V staining based flow cytometric analysis (reference value: 82.9%); assay type: functional; conditions: read-out: Activity
# [17] = system: SW1990; assay: Antiproliferative activity against human SW1990 cells harboring KRAS G12D mutant assessed as inhibition of cell viability after 24 hrs by MTT assay; assay type: functional, cell-based; conditions: SW1990, 24 h
# [18] = system: CT26; assay: Induction of apoptosis in mouse CT26 cells assessed as early apoptotic cells at 2 uM measured after 24 hrs by PI/Annexin V staining based flow cytometric analysis (reference value: 11.2%); assay type: functional
# [19] = system: SW1990; assay: Induction of apoptosis in human SW1990 cells assessed as necrotic cells at 2 uM measured after 24 hrs by PI/Annexin V staining based flow cytometric analysis (reference value: 2.69%); assay type: functional
# [20] = Toxicity in BALB/c mouse allografted with mouse CT26 cells assessed as MPV level at 40 to 60 mg/kg, ip administered once a day for 10 days (reference value: 15 to 63 fL); assay type: organism-based; conditions: in vivo, 240 h, dose 40-60 mg/kg, time 10 day
# [21] = system: SW1990; assay: Induction of apoptosis in human SW1990 cells assessed as necrotic cells at 4 uM measured after 24 hrs by PI/Annexin V staining based flow cytometric analysis (reference value: 2.69%); assay type: functional
# [22] = system: SW1990; assay: Induction of apoptosis in human SW1990 cells assessed as viable cells at 4 uM measured after 24 hrs by PI/Annexin V staining based flow cytometric analysis (reference value: 82.9%); assay type: functional; conditions: read-out: Activity
# [23] = system: CT26; assay: In vivo inhibition of KRAS G12D mutant (unknown origin) mediated downstream signalling in mouse CT26 cells allografted in BALB/c mouse assessed as decrease in phosphorylation level of ErK in tumor tissue at 40 to 60 mg/kg, ip administered once a day for 10 days by Western blotting analysis; assay type: functional, organism-based; conditions: dose 40-60 mg/kg, time 10.0 day
# [24] = system: SW1990; assay: Induction of apoptosis in human SW1990 cells assessed as late apoptotic cells at 8 uM measured after 24 hrs by PI/Annexin V staining based flow cytometric analysis (reference value: 3.75%); assay type: functional
# [25] = system: NCI-H358; assay: Antiproliferative activity against human NCI-H358 cells harboring KRAS G12C mutant assessed as inhibition of cell viability after 24 hrs by MTT assay; assay type: functional, cell-based; conditions: NCI-H358, 24 h
# [26] = system: HCT-116; assay: Antiproliferative activity against human HCT-116 cells harboring KRAS G13D mutant assessed as inhibition of cell viability after 24 hrs by MTT assay; assay type: functional, cell-based; conditions: HCT-116, 24 h
# [27] = Toxicity in BALB/c mouse allografted with mouse CT26 cells assessed as RDW-CV level at 40 to 60 mg/kg, ip administered once a day for 10 days (reference value: 13.3 to 23.8 %); assay type: organism-based; conditions: in vivo, 240 h, dose 40-60 mg/kg, time 10 day
# [28] = system: CT26; assay: Induction of apoptosis in mouse CT26 cells assessed as viable cells at 2 uM measured after 24 hrs by PI/Annexin V staining based flow cytometric analysis (reference value: 84.8%); assay type: functional; conditions: read-out: Activity
# [29] = system: CT26; assay: Induction of apoptosis in mouse CT26 cells assessed as late apoptotic cells at 8 uM measured after 24 hrs by PI/Annexin V staining based flow cytometric analysis (reference value: 3.21%); assay type: functional
# [30] = system: CT26; assay: Induction of apoptosis in mouse CT26 cells assessed as necrotic cells at 8 uM measured after 24 hrs by PI/Annexin V staining based flow cytometric analysis (reference value: 0.789%); assay type: functional
# [31] = system: CT26; assay: Inhibition of GTP bound KRAS in mouse CT26 cells assessed as down regulation of KRAS-GTP protein level incubated for 12 hrs by Pull-Down based Western blotting analysis; assay type: functional, cell-based; conditions: dose 10-20 µM, DDE = dose-dependent effect
# GTPase KRas (Homo sapiens), P01116 [G12D], sequence (P01116 whole entry G12D, looked up): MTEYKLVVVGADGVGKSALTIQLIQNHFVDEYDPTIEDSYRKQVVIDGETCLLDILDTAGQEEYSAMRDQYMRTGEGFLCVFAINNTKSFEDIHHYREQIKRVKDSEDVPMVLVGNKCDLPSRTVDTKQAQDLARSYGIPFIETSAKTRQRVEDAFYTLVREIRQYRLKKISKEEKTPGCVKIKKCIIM
# GTPase KRas (Homo sapiens), sequence (P01116 whole entry, looked up): as the sequence (P01116 whole entry G12D, looked up) above, with D12G counted along it
compound,measurement,setting,value
COc1ccc(C(F)(F)F)cc1-c1cc2c(N3CC4CCC(C3)N4)ncnc2s1,Activity,[1],3.87%
same,Activity,[2],Non-Toxic
same,Activity,[3],336 g/L
same,Activity,[4],0.372%
same,Activity,[5],0.2%
same,-TdeltaS,[6],16.4 kcal/mol
same,Activity,[7],14.2%
same,Activity,[8],0.01 10^9/L
same,Activity,[9],16.1 fL
same,Activity,[10],Dde
same,Activity,[11],Non-Toxic
same,inhibition in vivo at 40 mg/kg,[12],42%
same,Activity,[13],Dde
same,inhibition in vivo at 60 mg/kg,[14],53%
same,Activity,[15],36.4%
same,viability at 2 µM,[16],74.4%
same,pIC50,[17],5.68
same,Activity,[18],15.4%
same,Activity,[19],3.11%
same,Activity,[20],6.2 fL
same,Activity,[21],8.76%
same,viability at 4 µM,[22],47.9%
same,Activity,[23],Active
same,Activity,[24],56.9%
same,pIC50,[25],5.35
same,pIC50,[26],5.33
same,Activity,[27],14%
same,viability at 2 µM,[28],78.6%
same,Activity,[29],60.4%
same,Activity,[30],6.61%
same,inhibition,[31],Dde
